# Assay results: ChEMBL document CHEMBL1649183, “Substrate-induced inactivation of the Escherichia coli AmiD N-acetylmuramoyl-L-alanine amidase highlights a new strategy to inhibit this class of enzyme” (Antimicrob Agents Chemother, 2009)
# Calls of active or inactive are those of the source. The calls are words filed in the database; no cut-off is given here.
# How the values were obtained:
# [1] = test system: Escherichia coli; experiment: Inactivation of histidine6-tagged Escherichia coli LMG194 AmiD at 14 uM
# [2] = test system: Escherichia coli; experiment: Inactivation of histidine6-tagged Escherichia coli LMG194 AmiD at 27 uM
smiles,measurement,setting,value
"CC(=O)N[C@H]1[C@@H]2OC[C@@H](O2)[C@@H](O[C@@H]2O[C@H](CO)[C@@H](O)C(O)[C@H]2NC(C)=O)[C@@H]1O[C@@H](C)C(=O)N[C@@H](C)C(=O)N[C@H](CCC(=O)N[C@H](CCC[C@H](N)C(=O)O)C(=O)N[C@H](C)C(=O)O)C(=O)O (single isomer, unassigned)",inhibition,[1],Active
same,inhibition,[2],Active
